Results as given in patent US20050118226A1, “Methods for treating ACAT-related diseases” (priority 2003, published 2005).
“Also recorded” adds a separate entry of the source.

Experiments:
[1] = tested on: γ-secretase complex components and substrates, BACE1, ApoE; assay: Western blot of γ-secretase components and substrates, BACE1 and ApoE in non-transgenic littermates; format: in vivo, mouse
Method: For Western blot analyses, frozen hemispheres of non-transgenic littermates were homogenized in TBS buffer containing 5 mM EDTA, 1 mM 1,10-phenanthroline (ICN Biomedicals), 20 μM ALLN (BioMol) and a protease inhibitor mixture (Roche). Homogenates were centrifuged at 100000 g for 1 hour at +4° C. The supernatants were used for analyses of secreted APP forms and ApoE, while the pellets extracted with the homogenization buffer containing 1% Triton X-100 and 0.2% SDS. 120 μg of total protein were resolved on 4-12% or 12% NuPAGE Bis-Tris gels (Invitrogen) under reducing conditions, and Western blots were performed as described previously (Puglielli et al., 2001). For analysis of Notch-ICD (NICD), 250 μg of total protein was immunoprecipitated with an NICD-specific antibody (cleavage site (Val1744)-specific; Cell Signaling Technology) according to manufacturer's recommendations. Antibodies used for Western blots were R1736 (specific for sAPP-α; a gift from Dr. D. J. Selkoe, Brigham and Women's Hospital, Boston, Mass.), Abl4 (PS 1-NTF; a gift from Dr. S. E. Gandy, Thomas Jefferson University, Philadelphia, Pa.), Pen2 (a gift from Dr. S. S. Sisodia, University of Chicago, Chicago, Ill.), N-Cadherin (C32, C-terminal; BD Transduction Laboratories), ApoE (Santa Cruz Biotechnology), β-tubulin (Sigma), BACE1 and Nicastrin (Affinity BioReagents). Rbt×APP (CTF), 22C11 (APP-NTF) and Rbt×PSI (PS 1-CTF) were from Chemicon International. BACE stainings (N-terminal; Affinity BioReagents) were confirmed with two additional antibodies; Ms×BACE1 (Chemicon International) and BACE (C-terminal; Affinity BioReagents). Densitometric analyses were performed using the QuantityOne software package (Bio-Rad). Statistical significance was determined by Student's t test. For Western blot analyses shown in supplemental figures, neutralized formic acid fractions (approximately 100 μg of total protein) were precipitated by adding 50% trichloroacetic acid to 15.5% final concentration. After 30 min incubation and centrifugation at 4° C., the pellets were solubilized by adding 10 μl of 2M Tris base and 10 μl of 4×LDS-PAGE loading buffer (NuPage, Invitrogen). Before loading, the samples were incubated for 30 min at 37° C., freeze-thawed once and boiled. Western blot analysis was performed as described above.
Our previous cell-based studies have shown that ACAT inhibition reduces Aβ generation and alters APP processing by all three secretases (Puglielli et al., 2001). To determine whether CP-113,818 treatment modified brain APP processing in hAPP mice, we initially resolved formic acid-extracted brain proteins by SDS-PAGE to detect APP and its proteolytic derivatives. […] However, levels of the secreted cleavage products of both α- and β-secretases (sAPP) were reduced by treatment with the ACAT inhibitor albeit not nearly as dramatically as Aβ (FIG. 9). Inhibition of sAPP production in the absence of a change in CTFs was somewhat surprising, and possibly an artifact caused by formic acid extraction. Because tissue from treated hAPP mice had been extracted with formic acid or fixed for histological studies, we looked at levels of APP-CTFs in total brain lysates from the non-transgenic littermates used in the Morris water maze tests. Using non-transgenic animals for these experiments also afforded an assessment of the effects of CP-113,818 on endogenous APP processing. CP-113,818 reduced liver cholesterol/cholesteryl-esters and serum cholesterol of non-transgenic littermates similarly to the transgenic animals shown in FIG. 1C (data not shown). Endogenous mouse APP-CTF levels in brain lysates from CP-113,818-treated animals decreased by 44% when compared to placebo-treated mice (n=8, p<0.005, values normalized to APP holoprotein levels; FIG. 10A, B). We could not resolve C99 and C83 from these samples due to smearing in the low molecular weight range because of high protein load (FIG. 10A). […]

[2] = tested on: Aβ1-40 and Aβ1-42; assay: Sandwich ELISA of brain Aβ1-40 and Aβ1-42 in hAPP mice; format: in vivo, mouse
Method: For Aβ determinations, frozen hemispheres were first homogenized in TBS-buffer (5 ml) containing a protease inhibitor cocktail (Protease Inhibitor Cocktail Set I, Calbiochem) and then centrifuged at 75000 g for 1 hour, as described elsewhere (Kawarabayashi et al., 2001). Supernatants were saved for soluble Aβ analyses (see below). Pellets were resuspended and further homogenized in 70% formic acid (1 ml), followed by centrifugation at 75000 g for 1 hour. Formic acid-supernatants were neutralized with 1M TRIS (19 ml) and used for ELISA determination (insoluble Aβ). Aβ1-40 and Aβ1-42 were assayed using commercially available ELISA kits (The Genetics Company®, Switzerland). Measurements were performed at least in duplicate. Soluble Aβ ELISAs: secreted Aβ1-40 and Aβ1-42 levels in the TBS homogenate were analyzed by a sandwich ELISA system as described previously using the following antibodies: Aβ40=MM27 33.1.1 capture, MM32 13.1.1 for detection; Aβ42=MM27 33.1.1 capture, MM26 4.1.3 for detection (Suzuki et al., 1994).
We next used a sandwich enzyme-linked immunosorbent assay (ELISA) to measure Aβ1-40 and Aβ1-42 levels in 70% formic acid extracts from brain homogenates (“insoluble” Aβ) and in the initial TBS fraction of the same homogenates (soluble Aβ). Similar to plaque load, Aβ levels varied widely, as expected in transgenic mice specifically at early stages of pathology (Johnson-Wood et al., 1997; Kawarabayashi et al., 2001). Treatment with CP-113,818 decreased Aβ1-40 and Aβ1-42 in the formic acid fraction to almost undetectable concentrations. […] Since brain extracts were obtained from entire hemispheres including cortices and hippocampi, the difference between male and female Aβ levels at this age was accentuated by the slowly developing amyloid pathology in male hippocampi (see FIG. 3B). When analyzed according to gender, only female “insoluble” Aβ was sufficiently elevated to obtain a highly significant decrease by CP-113,818 treatment, with Aβ1-40 down by 96% (p<0.014) and Aβ1-42 down by 90% (p<0.014; FIG. 5A). […] This decrease was statistically significant in both genders. Soluble Aβ1-40 levels were close to the limit of detection, but a trend toward decrease was observed (20%) in all animals, significant only in males (FIG. 5B).

[3] = female hAPP mice, brain formic acid extracts
[4] = hAPP mice, all animals, brain formic acid extracts

With `CCCCCCCC[C@H](SCCCCCC)C(=O)Nc1c(SC)cc(C)nc1SC` [CP-113,818] the “Notch intracellular domain (NICD) levels” value ([1]; immunoprecipitated from non-transgenic mouse brain lysates) was “statistically unchanged; also recorded: remained unchanged”, the BACE protein levels ([1]; non-transgenic brain lysates) was “unchanged; also recorded: did not alter expression levels” and the “levels of N-cadherin-CTF1” value ([1]; non-transgenic brain lysates) was “unaffected; also recorded: remained unchanged”. For the same compound, the “levels of PS1 N- and C-terminal fragments, nicastrin, and pen-2” value ([1]; non-transgenic brain lysates) was “did not detect significant changes”, the “nicastrin maturation / maturation of γ-secretase complex” value ([1]; non-transgenic brain lysates) was “unaffected; also recorded: did not alter maturation” and the “expression of ApoE” value ([1]; non-transgenic littermates, soluble TBS fraction) was “unchanged; also recorded: did not alter expression levels”. The “decrease in insoluble Aβ1-40, females” value [2, 3] was 96%, the “decrease in insoluble Aβ1-42, females” value [2, 3] was 90% and the “reduction of soluble Aβ1-42” value ([2]; hAPP mice, TBS fraction lacking detergents) was 34%. The “decrease in insoluble Aβ1-40” value [2, 4] was 92%, the “decrease in insoluble Aβ1-42” value [2, 4] was 83% and the Aβ1-42/Aβ1-40 ratio ([2]; hAPP mice, insoluble Aβ) was “no significant difference”. For the same compound, the “decrease of "insoluble" Aβ (summary)” value ([2]; transgenic mice) was 83-99%.
